Common to all, as to assay: Assay B: in vitro antibacterial activity, broth microdilution MIC (NCCLS)
Common to all, as to assay type: cell-based

In experiment [1] the test system is Enterococcus faecalis PIU 1967. The settings on record: Table 2, Assay B, cation-adjusted Mueller Hinton broth, 35° C., 16 to 20 hr; code B = Enterococcus faecalis PIU 1967; unit assumed. The method in brief:
(§1)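 Growth inhibition read by eye after incubation at 35° C (16 to 20 hr; 20 to 24 hr for S. pneumoniae and H. influenzae). Medium: cation-adjusted Mueller Hinton broth, supplemented with 3% lysed horse blood or with 5 g/L yeast extract, 0.3 mmol/L hematin and 15 mg/L NAD, respectively.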

For another experiment, the system named is Escherichia coli JUHL. The note with it: Table 2, Assay B, cation-adjusted Mueller Hinton broth, 35° C., 16 to 20 hr; code D = Escherichia coli JUHL; unit assumed. The method in brief:
as §1

Experiment [2] concerns Haemophilus influenzae DILL AMP R. The settings on record: Table 2, Assay B, Mueller Hinton broth with yeast extract, hematin and NAD, 20 to 24 hr; code E = Haemophilus influenzae DILL AMP R; unit assumed. The method in brief: as §1
Experiment [3] relates to Staphylococcus aureus ATCC 6538P. The note with it: Table 2, Assay B, cation-adjusted Mueller Hinton broth, 35° C., 16 to 20 hr; code A = Staphylococcus aureus ATCC 6538P; unit assumed. The method in brief: as §1
In experiment [4] the test system is Streptococcus pneumoniae ATCC 6303. The note with it: Table 2, Assay B, Mueller Hinton broth with 3% lysed horse blood, 20 to 24 hr; code F = Streptococcus pneumoniae ATCC 6303; unit assumed. The method in brief:
as §1

As to `COc1c(-c2cc3c(s2)CCCC3NC2CCN(C)CC2)ccc2c(=O)c(C(=O)O)cn(C3CC3)c12.Cl.Cl` (stereo not drawn) [Example 133, 1-cyclopropyl-8-methoxy-7-(4-((1-methyl-4-piperidinyl)amino)-4,5,6,7-tetrahydro-1-benzothien-2-yl)-4-oxo-1,4-dihydro-3-quinolinecarboxylic acid dihydrochloride], the Antibacterial Activity (MIC's), B in experiment [1] was 1 µg/mL. Further, the Antibacterial Activity (MIC's), D with Escherichia coli JUHL came out at 1 µg/mL. In addition, the Antibacterial Activity (MIC's), E in experiment [2] was found to be 1 µg/mL. The Antibacterial Activity (MIC's), A in experiment [3] was 0.5 µg/mL. The Antibacterial Activity (MIC's), F in experiment [4] worked out at 1 µg/mL.

On to `COc1c(-c2cc3c(s2)S(=O)(=O)CCC3O)ccc2c(=O)c(C(=O)O)cn(C3CC3)c12` (stereo not drawn) [Example 135, 1-cyclopropyl-7-(4-hydroxy-7,7-dioxido-5,6-dihydro-4H-thieno[2,3-b]thiopyran-2-yl)-8-methoxy-4-oxo-1,4-dihydro-3-quinolinecarboxylic acid], for which the Antibacterial Activity (MIC's), B in experiment [1] stood at 1 µg/mL. In the experiment with Escherichia coli JUHL, the Antibacterial Activity (MIC's), D is 16 µg/mL. In addition, the Antibacterial Activity (MIC's), E in experiment [2] stood at 1 µg/mL. The same compound registered an Antibacterial Activity (MIC's), A in experiment [3] of 1 µg/mL. The compound further came in with an Antibacterial Activity (MIC's), F in experiment [4] of 4 µg/mL.

In turn, `COc1c(-c2cc3c(s2)S(=O)(=O)CCC3N)ccc2c(=O)c(C(=O)O)cn(C3CC3)c12.Cl` (stereo not drawn) [Example 143, 7-(4-amino-7,7-dioxido-5,6-dihydro-4H-thieno[2,3-b]thiopyran-2-yl)-1-cyclopropyl-8-methoxy-4-oxo-1,4-dihydro-3-quinolinecarboxylic acid hydrochloride] displayed an Antibacterial Activity (MIC's), B in experiment [1] of 0.5 µg/mL. The same compound came in with an Antibacterial Activity (MIC's), D with Escherichia coli JUHL of 64 µg/mL. For the same compound, the Antibacterial Activity (MIC's), E in experiment [2] came out at 0.125 µg/mL. Further, the Antibacterial Activity (MIC's), A in experiment [3] was 0.125 µg/mL. Also, in experiment [4], the Antibacterial Activity (MIC's), F amounted to 0.5 µg/mL.

As for `COc1c(-c2cc3c(s2)CCCC3NCCO)ccc2c(=O)c(C(=O)O)cn(C3CC3)c12.Cl` (stereo not drawn) [Example 155, 1-cyclopropyl-7-(4-((2-hydroxyethyl)amino)-4,5,6,7-tetrahydro-1-benzothien-2-yl)-8-methoxy-4-oxo-1,4-dihydro-3-ouinolinecarboxylic acid hydrochloride], the Antibacterial Activity (MIC's), B in experiment [1] is 0.125 µg/mL. In the experiment with Escherichia coli JUHL, this compound came in with an Antibacterial Activity (MIC's), D of 0.5 µg/mL. Moreover, in experiment [2], the Antibacterial Activity (MIC's), E came out at 0.06 µg/mL. In addition, the Antibacterial Activity (MIC's), A in experiment [3] was 0.03 µg/mL. This compound also had an Antibacterial Activity (MIC's), F in experiment [4] of 0.03 µg/mL.

Take `Cl.NC1CCCc2sc(-c3nc4c(cc3F)c(=O)c(C(=O)O)cn4C3CC3)cc21` (stereo not drawn) [Example 156, 7-(4-amino-4,5,6,7-tetrahydro-1-benzothien-2-yl)-1-cyclopropyl-6-fluoro-4-oxo-1,4-dihydro[1,8]naphthyridine-3-carboxylic acid hydrochloride]: the Antibacterial Activity (MIC's), B in experiment [1] amounted to 0.125 µg/mL. In addition, the Antibacterial Activity (MIC's), D with Escherichia coli JUHL amounted to 0.03 µg/mL. Also, the Antibacterial Activity (MIC's), E in experiment [2] came out at 0.015 µg/mL. The compound further returned an Antibacterial Activity (MIC's), A in experiment [3] of 0.03 µg/mL. In addition, the Antibacterial Activity (MIC's), F in experiment [4] is 0.06 µg/mL.

In experiment [1], `COc1c(-c2cc3c(s2)CCC/C3=N\OCc2cccnc2)ccc2c(=O)c(C(=O)O)cn(C3CC3)c12` [Example 182, 1-cyclopropyl-8-methoxy-4-oxo-7-((4E)-4-((3-pyridinylmethoxy)imino)-4,5,6,7-tetrahydro-1-benzothien-2-yl)-1,4-dihydro-3-quinolinecarboxylic acid] showed an Antibacterial Activity (MIC's), B of 0.25 µg/mL. Besides, the Antibacterial Activity (MIC's), D with Escherichia coli JUHL amounted to 1 µg/mL. For the same compound, the Antibacterial Activity (MIC's), E in experiment [2] was 0.125 µg/mL. This compound displayed an Antibacterial Activity (MIC's), A in experiment [3] of 0.03 µg/mL. Also, the Antibacterial Activity (MIC's), F in experiment [4] is 0.25 µg/mL.

`COc1c(-c2cc3c(s2)CCC(C)C3O)ccc2c(=O)c(C(=O)O)cn(C3CC3)c12` (stereo not drawn) [Example 185, 1-cyclopropyl-7-(4-hydroxy-5-methyl-4,5,6,7-tetrahydro-1-benzothien-2-yl)-8-methoxy-4-oxo-1,4-dihydro-3-quinolinecarboxylic acid]: the Antibacterial Activity (MIC's), B in experiment [1] came out at 0.25 µg/mL. Besides, the Antibacterial Activity (MIC's), D in the experiment with Escherichia coli JUHL is 0.5 µg/mL. For the same compound, the Antibacterial Activity (MIC's), E in experiment [2] was determined as 0.125 µg/mL. This compound came in with an Antibacterial Activity (MIC's), A in experiment [3] of 0.015 µg/mL. In addition, the Antibacterial Activity (MIC's), F in experiment [4] was found to be 0.5 µg/mL.

In experiment [1], `COc1c(-c2cc3c(s2)CCCC3N2CC(O)C2)ccc2c(=O)c(C(=O)O)cn(C3CC3)c12.Cl` (stereo not drawn) [Example 198, 1-cyclopropyl-7-(4-(3-hydroxy-1-azetidinyl)-4,5,6,7-tetrahydro-1-benzothien-2-yl)-8-methoxy-4-oxo-1,4-dihydro-3-guinolinecarboxvlic acid hydrochloride] had an Antibacterial Activity (MIC's), B of 0.25 µg/mL. The compound further gave an Antibacterial Activity (MIC's), D with Escherichia coli JUHL of 0.5 µg/mL. The same compound had an Antibacterial Activity (MIC's), E in experiment [2] of 0.25 µg/mL. The compound further registered an Antibacterial Activity (MIC's), A in experiment [3] of 0.25 µg/mL. The compound also had an Antibacterial Activity (MIC's), F in experiment [4] of 0.125 µg/mL.

Turning to `COc1c(-c2cc3c(s2)CCC(C)C3N)ccc2c(=O)c(C(=O)O)cn(C3CC3)c12.Cl` (stereo not drawn) [Example 199, 7-(4-amino-5-methyl-4,5,6,7-tetrahydro-1-benzothien-2-yl)-1-cyclopropyl-8-methoxy-4-oxo-1,4-dihydro-3-quinolinecarboxylic acid hydrochloride], in experiment [1], the Antibacterial Activity (MIC's), B came out at 0.125 µg/mL. In the experiment on Escherichia coli JUHL, this compound showed an Antibacterial Activity (MIC's), D of 0.25 µg/mL. In experiment [2], this compound had an Antibacterial Activity (MIC's), E of 0.125 µg/mL. The compound also came in with an Antibacterial Activity (MIC's), A in experiment [3] of 0.03 µg/mL. In addition, in experiment [4], the Antibacterial Activity (MIC's), F amounted to 0.06 µg/mL.

`Cl.NC1CCCc2sc(-c3ccc4c(=O)c(C(=O)O)cn(C5CC5)c4n3)cc21` (stereo not drawn) [Example 200, 7-(4-amino-4,5,6,7-tetrahydro-1-benzothien-2-yl)-1-cyclopropyl-4-oxo-1,4-dihydro[1,8]naphthyridine-3-carboxylic acid hydrochloride] displayed an Antibacterial Activity (MIC's), B in experiment [1] of 0.125 µg/mL. In the experiment on Escherichia coli JUHL, this compound came in with an Antibacterial Activity (MIC's), D of 0.06 µg/mL. This compound also gave an Antibacterial Activity (MIC's), E in experiment [2] of 0.03 µg/mL. In experiment [3], this compound displayed an Antibacterial Activity (MIC's), A of 0.03 µg/mL. Further, in experiment [4], the Antibacterial Activity (MIC's), F amounted to 0.125 µg/mL.

As for `COc1c(-c2cc3c(s2)C(O)CNC3)ccc2c(=O)c(C(=O)O)cn(C3CC3)c12` (stereo not drawn) [Example 202, 1-cyclopropyl-7-(7-hydroxy-4,5,6,7-tetrahydrothieno[3,2-c]pyridin-2-yl)-8-methoxy-4-oxo-1,4-dihydro-3-quinolinecarboxylic acid], in experiment [1], the Antibacterial Activity (MIC's), B amounted to 0.5 µg/mL. In the experiment on Escherichia coli JUHL, this compound registered an Antibacterial Activity (MIC's), D of 0.125 µg/mL. In addition, in experiment [2], the Antibacterial Activity (MIC's), E was 0.015 µg/mL. The Antibacterial Activity (MIC's), A in experiment [3] stood at 0.125 µg/mL. Moreover, the Antibacterial Activity (MIC's), F in experiment [4] came to 0.25 µg/mL.

In experiment [1], `COc1c(-c2cc3c(s2)CCC(F)(F)C3O)ccc2c(=O)c(C(=O)O)cn(C3CC3)c12` (stereo not drawn) [Example 204, 1-cyclopropyl-7-(5,5-difluoro-4-hydroxy-4,5,6,7-tetrahydro-1-benzothien-2-yl)-8-methoxy-4-oxo-1,4-dihydro-3-quinolinecarboxylic acid] yielded an Antibacterial Activity (MIC's), B of 0.03 µg/mL. This compound displayed an Antibacterial Activity (MIC's), D in the experiment with Escherichia coli JUHL of 0.125 µg/mL. Also, in experiment [2], the Antibacterial Activity (MIC's), E was ≤ 0.004 µg/mL. Further, the Antibacterial Activity (MIC's), A in experiment [3] is ≤ 0.004 µg/mL. The compound also returned an Antibacterial Activity (MIC's), F in experiment [4] of 0.125 µg/mL.
